Experiment [1] deals with CBP (Homo sapiens (Human), UniProt Q92793). Briefly: CBP TR-FRET binding assay.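 Further: displacement of a biotinylated small-molecule ligand from purified recombinant CBP read by TR-FRET, DMSO-only wells as control, IC50 from nonlinear curve fit.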 Particulars: His/Flag tagged CBP 4 nM, biotin-ligand 60 nM; read-out: CBP HTRF IC50.
Protocol: IC50 Measurements for Inhibitors Using CBP TR FRET Binding Assay
His/Flag epitope tagged CBP was cloned, expressed, and purified to homogeneity. CBP binding and inhibition was assessed by monitoring the engagement of a biotinylated small molecule compound with the target using the TR-FRET assay technology (Perkin-Elmer). Specifically, in a 384 well ProxiPlate CBP (4 nM final) was combined with biotin-ligand (60 nM final) in 50 mM HEPES (pH 7.5), 50 mM NaCl, 1 mM TCEP, 0.01% (w/v) BSA, and 0.008% (w/v) Brij-35 either in the presence of DMSO (final 0.2% DMSO) or compound dilution series in DMSO. […] After twenty minutes of equilibration, the plates were read on an Envision instrument and IC50S calculated using a four parameter non-linear curve fit.
The test system of experiment [2] is MYC. Briefly: MYC RPL19 QuantiGene assay in MV-4-11 cells. The settings on record: Homo sapiens, MV4-11, compound 4 hours. The format is cell-based. The source says:
MYC RPL19 QuantiGene assay in MV-4-11 Cells

Structures are written as SMILES.

CBP, sequence (Q92793 whole entry): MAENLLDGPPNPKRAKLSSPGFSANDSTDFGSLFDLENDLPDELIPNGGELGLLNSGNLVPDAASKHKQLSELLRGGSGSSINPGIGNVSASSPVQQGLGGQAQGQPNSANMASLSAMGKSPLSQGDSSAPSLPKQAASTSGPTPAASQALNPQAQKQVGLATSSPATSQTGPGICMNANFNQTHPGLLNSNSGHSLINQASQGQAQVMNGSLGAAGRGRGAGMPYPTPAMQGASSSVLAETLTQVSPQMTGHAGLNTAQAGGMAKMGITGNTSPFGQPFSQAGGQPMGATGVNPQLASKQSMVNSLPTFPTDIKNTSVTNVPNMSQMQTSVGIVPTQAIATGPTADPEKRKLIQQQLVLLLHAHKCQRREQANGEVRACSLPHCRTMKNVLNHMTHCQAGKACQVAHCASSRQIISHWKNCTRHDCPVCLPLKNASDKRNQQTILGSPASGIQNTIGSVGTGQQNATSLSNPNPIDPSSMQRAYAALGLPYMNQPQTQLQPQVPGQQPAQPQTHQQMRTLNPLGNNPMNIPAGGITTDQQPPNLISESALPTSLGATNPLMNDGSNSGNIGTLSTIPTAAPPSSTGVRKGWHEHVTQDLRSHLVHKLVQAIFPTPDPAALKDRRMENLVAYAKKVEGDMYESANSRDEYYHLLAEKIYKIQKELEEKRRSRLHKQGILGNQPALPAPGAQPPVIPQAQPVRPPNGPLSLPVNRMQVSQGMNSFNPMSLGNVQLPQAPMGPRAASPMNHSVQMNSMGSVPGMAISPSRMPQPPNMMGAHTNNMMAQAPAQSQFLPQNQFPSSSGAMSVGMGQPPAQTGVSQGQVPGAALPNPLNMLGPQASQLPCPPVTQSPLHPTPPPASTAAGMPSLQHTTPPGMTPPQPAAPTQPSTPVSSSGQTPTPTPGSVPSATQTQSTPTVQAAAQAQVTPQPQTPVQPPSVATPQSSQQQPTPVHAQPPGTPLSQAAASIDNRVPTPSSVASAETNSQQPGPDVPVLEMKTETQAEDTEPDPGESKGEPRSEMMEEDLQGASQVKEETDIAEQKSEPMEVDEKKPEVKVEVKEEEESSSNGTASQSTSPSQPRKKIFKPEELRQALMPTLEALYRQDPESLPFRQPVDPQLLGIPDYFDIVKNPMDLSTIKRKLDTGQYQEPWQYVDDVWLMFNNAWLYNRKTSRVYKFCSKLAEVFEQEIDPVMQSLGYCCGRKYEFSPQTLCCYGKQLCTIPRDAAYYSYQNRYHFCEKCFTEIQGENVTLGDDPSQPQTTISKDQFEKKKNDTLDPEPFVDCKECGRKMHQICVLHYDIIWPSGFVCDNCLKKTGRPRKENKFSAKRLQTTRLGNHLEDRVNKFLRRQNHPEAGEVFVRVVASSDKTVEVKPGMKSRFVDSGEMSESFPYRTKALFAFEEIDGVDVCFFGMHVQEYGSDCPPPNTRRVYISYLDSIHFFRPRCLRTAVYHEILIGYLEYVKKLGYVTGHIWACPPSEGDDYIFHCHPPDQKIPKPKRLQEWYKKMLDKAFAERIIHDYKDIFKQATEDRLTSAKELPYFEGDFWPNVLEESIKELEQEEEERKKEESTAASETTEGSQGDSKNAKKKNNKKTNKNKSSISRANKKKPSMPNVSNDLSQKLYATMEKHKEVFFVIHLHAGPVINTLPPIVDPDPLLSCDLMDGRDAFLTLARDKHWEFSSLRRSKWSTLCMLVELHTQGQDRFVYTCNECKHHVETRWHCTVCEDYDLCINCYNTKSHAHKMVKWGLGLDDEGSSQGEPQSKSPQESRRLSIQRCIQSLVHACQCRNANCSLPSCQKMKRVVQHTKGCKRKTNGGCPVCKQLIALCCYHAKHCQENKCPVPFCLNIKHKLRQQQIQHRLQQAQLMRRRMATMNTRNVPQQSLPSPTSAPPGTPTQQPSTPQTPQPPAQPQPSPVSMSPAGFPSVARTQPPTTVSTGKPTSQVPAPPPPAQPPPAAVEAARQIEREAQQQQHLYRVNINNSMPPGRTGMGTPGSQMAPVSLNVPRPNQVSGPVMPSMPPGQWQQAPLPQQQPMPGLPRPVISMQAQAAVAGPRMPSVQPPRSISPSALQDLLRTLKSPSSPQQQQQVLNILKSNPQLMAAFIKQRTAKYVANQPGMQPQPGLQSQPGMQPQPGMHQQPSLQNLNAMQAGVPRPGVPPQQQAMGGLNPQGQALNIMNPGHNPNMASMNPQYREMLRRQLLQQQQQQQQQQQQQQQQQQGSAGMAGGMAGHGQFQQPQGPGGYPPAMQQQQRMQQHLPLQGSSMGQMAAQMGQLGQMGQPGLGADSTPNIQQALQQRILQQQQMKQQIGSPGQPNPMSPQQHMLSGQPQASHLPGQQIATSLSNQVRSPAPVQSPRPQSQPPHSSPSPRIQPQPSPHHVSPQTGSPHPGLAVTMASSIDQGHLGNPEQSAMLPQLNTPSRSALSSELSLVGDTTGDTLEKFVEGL

On to `Cn1cc(-c2cc3c(cc2C(F)F)N(c2ccc4c(c2F)n(C)c(=O)n4C)CCC3)cn1` [Example 34], for which the IC50 is more than 4900 nM in experiment [1] and more than 10000 nM in experiment [2]. Turning to `CNC(=O)c1ccc2cccc(N3CCCc4cc(-c5cnn(C)c5)c(C(F)F)cc43)c2n1` [Example 120, 7-(difluoromethyl)-N-methyl-6-(1-methyl-1H-pyrazol-4-yl)-3,4-dihydro-2H-[1,8′-biquinoline]-2′-carboxamide], the IC50 in experiment [1] came out at 6 nM; in experiment [2] it was 632 nM.

For the compound `CNC(=O)c1c[nH]c2ncc(N3CCCc4cc(-c5cnn(C)c5)c(C(F)F)cc43)cc12` [Example 68], the IC50 amounted to 15 nM in experiment [1] and 4380 nM in experiment [2]. In the same order, the values of `CNC(=O)c1cn(C)c2ccc(N3CCCc4cc(-c5cnn(C)c5)c(C(F)F)cc43)c(F)c12` [Example 55] are 4 nM and 115 nM. The like results for `CNC(=O)c1cn(C)c2cnc(N3CCCc4cc(-c5cnn(C)c5)c(C(F)F)cc43)cc12` [Example 59] were, in that order, 6 nM and 205 nM. `CNC(=O)c1cn(C)c2c(C)cc(N3CCCc4cc(-c5cnn(C)c5)c(C(F)F)cc43)nc12` [Example 60]: the concentration for half-maximal inhibition (IC50) in experiment [1] came to 9 nM; in experiment [2], 108 nM. In the same order, the values of `CNC(=O)c1c[nH]c2c(C)nc(N3CCCc4cc(-c5cnn(C)c5)c(C(F)F)cc43)cc12` [Example 64, 5-(7-(difluoromethyl)-6-(1-methyl-1H-pyrazol-4-yl)-3,4-dihydroquinolin-1(2H)-yl)-N,7-dimethyl-1H-pyrrolo[2,3-c]pyridine-3-carboxamide] are 2 nM and 143 nM. The like results for `CNC(=O)c1cn(C)c2c(Cl)cc(N3CCCc4cc(-c5cnn(C)c5)c(C(F)F)cc43)cc12` [Example 54, 7-chloro-5-(7-(difluoromethyl)-6-(1-methyl-1H-pyrazol-4-yl)-3,4-dihydroquinolin-1(2H)-yl)-N,1-dimethyl-1H-indole-3-carboxamide] were, in that order, 59 nM and 2290 nM. In the same order, the values of `Cn1cc(-c2cc3c(cc2C(F)F)N(c2cc(C4CCOCC4)c4c(c2)n(C)c(=O)n4C)CCC3)cn1` [Example 97, 6-(7-(difluoromethyl)-6-(1-methyl-1H-pyrazol-4-yl)-3,4-dihydroquinolin-1(2H)-yl)-1,3-dimethyl-4-(tetrahydro-2H-pyran-4-yl)-1H-benzo[d]imidazol-2(3H)-one] are 4 nM and 58 nM. For `CNC(=O)N1CCOc2ccc(-c3cccc4[nH]ncc34)cc2C1` [Example 14], in experiment [1], the concentration for half-maximal inhibition (IC50) was 102 nM. On the same count and under the same terms, next, `CNC(=O)[C@@H]1CCc2ccc(N3CCCc4cc(-c5cnn(C)c5)c(C(F)F)cc43)nc21` [Example 118, (R)-2-(7-(difluoromethyl)-6-(1-methyl-1H-pyrazol-4-yl)-3,4-dihydroquinolin-1(2H)-yl)-N-methyl-6,7-dihydro-5H-cyclopenta[b]pyridine-7-carboxamide]: 3240 nM; `Cn1cc(-c2cc3c(cc2C(F)F)N(c2cnc4[nH]cc(-c5cnn(C)c5)c4n2)CCC3)cn1` [Example 74, 7-(difluoromethyl)-6-(1-methyl-1H-pyrazol-4-yl)-1-(7-(1-methyl-1H-pyrazol-4-yl)-5H-pyrrolo[2,3-b]pyrazin-2-yl)-1,2,3,4-tetrahydroquinoline]: 108 nM.

For the compound `CNC(=O)c1cn(C)c2c(OC)cc(N3CCCc4cc(-c5cnn(C)c5)c(C(F)F)cc43)cc12` [Example 106, 5-(7-(difluoromethyl)-6-(1-methyl-1H-pyrazol-4-yl)-3,4-dihydroquinolin-1(2H)-yl)-7-methoxy-N,1-dimethyl-1H-indole-3-carboxamide], the IC50 in experiment [1] was 16 nM. On the same count and under the same terms, with `CNC(=O)c1c[nH]c2ccc(N3CCCc4cc(-c5cnn(C)c5)ccc43)cc12` [Example 53] the figure was 48 nM. On the same count and under the same terms, next, `CNC(=O)N1CCOc2ccc(-c3nc(N)cc4cnccc34)cc2C1` [Example 2]: 321 nM; `CNC(=O)N1CCOc2ccc(-c3cccc4c3cnn4C)cc2C1` [Example 10]: 96 nM; `Cn1cc(-c2cc3cccc(-c4ccc5c(c4)n(C)c(=O)n5C)c3cn2)cn1` [Example 94, 1,3-dimethyl-5-(3-(1-methyl-1H-pyrazol-4-yl)isoquinolin-8-yl)-1H-benzo[d]imidazol-2(3H)-one]: 90 nM.

On to `Cn1cc(-c2cc3c(cc2C(F)F)N(c2ccc4oc(=O)n(C)c4c2)CCC3)cn1` [Example 91, 5-[7-(difluoromethyl)-6-(1-methylpyrazol-4-yl)-3,4-dihydro-2H-quinolin-1-yl]-3-methyl-1,3-benzoxazol-2-one], for which, in experiment [1], the 50% inhibitory concentration (IC50) was found to be 481 nM. On the same count and under the same terms, with `CC(=O)N1CCCc2cc(N3CCCc4cc(-c5cnn(C)c5)c(C(F)F)cc43)ccc21` [Example 87, 1-[6-[7-(difluoromethyl)-6-(1-methylpyrazol-4-yl)-3,4-dihydro-2H-quinolin-1-yl]-3,4-dihydro-2H-quinolin-1-yl]ethanone] the figure was 429 nM. Take `CCC(=O)N1CCOc2ccc(N3CCCc4cc(-c5cnn(C)c5)ccc43)cc2C1` [Example 79, 1-(7-(6-(1-methyl-1H-pyrazol-4-yl)-3,4-dihydroquinolin-1(2H)-yl)-2,3-dihydrobenzo[f][1,4]oxazepin-4(5H)-yl)propan-1-one]: in experiment [1], the IC50 was found to be 77 nM. `CNC(=O)N1CCOc2ccc(-c3c(C)ccc(-c4cnn(C)c4)c3C(F)F)cc2C1` [Example 76, 7-(2-(difluoromethyl)-6-methyl-3-(1-methyl-1H-pyrazol-4-yl)phenyl)-N-methyl-2,3-dihydrobenzo[f][1,4]oxazepine-4(5H)-carboxamide]: the half-maximal inhibitory concentration (IC50) in experiment [1] was found to be 243 nM. In experiment [2], `C[C@H]1Nc2c(cccc2N2CCCc3cc(-c4cnn(C)c4)c(C(F)F)cc32)NC1=O` [Example 81, (R)-5-(7-(difluoromethyl)-6-(1-methyl-1H-pyrazol-4-yl)-3,4-dihydroquinolin-1(2H)-yl)-3-methyl-3,4-dihydroquinoxalin-2(1H)-one] showed a half-inhibitory concentration (IC50) of 131 nM.

For the compound `CN1CCN(c2ccc3c(c2)n(C)c(=O)n3C)c2cc(C(F)(F)F)c(-c3cnn(C)c3)cc21` [Example 95, 1,3-dimethyl-5-(4-methyl-6-(1-methyl-1H-pyrazol-4-yl)-7-(trifluoromethyl)-3,4-dihydroquinoxalin-1(2H)-yl)-1H-benzo[d]imidazol-2(3H)-one], in experiment [1], the concentration for half-maximal inhibition (IC50) was 30 nM. Same read-out and setting: next, `CNC(=O)N1Cc2cc(N3CCCc4cc(-c5cnn(C)c5)c(C(F)F)cc43)ccc2OC(C)C1` (stereo not drawn) [Example 114, 7-(7-(difluoromethyl)-6-(1-methyl-1H-pyrazol-4-yl)-3,4-dihydroquinolin-1(2H)-yl)-N,2-dimethyl-2,3-dihydrobenzo[f][1,4]oxazepine-4(5H)-carboxamide]: 51 nM. Same read-out and setting: next, `CNC(=O)c1cnn2ccc(N3CCCc4cc(-c5cnn(C)c5)c(C(F)F)cc43)cc12` [Example 30]: 543 nM. Same read-out and setting: with `Cn1cc(-c2cc3c(cc2C(F)F)N(c2cc(N4CCCCC4)c4c(c2)n(C)c(=O)n4C)CCC3)cn1` [Example 44] the figure was 26 nM; with `CNC(=O)c1ccc2c(c1)c(N1CCCc3cc(-c4cnn(C)c4)ccc31)nn2C1CCOCC1` [Example 84], 87 nM. Consider `CNC(=O)N1CCOc2ccc(-c3c(C)ccc4[nH]ncc34)cc2C1` [Example 9], for which the 50% inhibitory concentration (IC50) in experiment [1] stood at 78 nM. Take `C#Cc1cc(N2CCCc3cc(-c4cnn(C)c4)c(C(F)F)cc32)cc2c1n(C)c(=O)n2C` [Example 101, 6-(7-(difluoromethyl)-6-(1-methyl-1H-pyrazol-4-yl)-3,4-dihydroquinolin-1(2H)-yl)-4-ethynyl-1,3-dimethyl-1H-benzo[d]imidazol-2(3H)-one]: the IC50 in experiment [1] is 12 nM. The same measure, in the same setting: next, `C[C@H]1Oc2c(cccc2N2CCCc3cc(-c4cnn(C)c4)c(C(F)F)cc32)NC1=O` [Example 115, (R)-8-(7-(difluoromethyl)-6-(1-methyl-1H-pyrazol-4-yl)-3,4-dihydroquinolin-1(2H)-yl)-2-methyl-2H-benzo[b][1,4]oxazin-3(4H)-one]: 77 nM. On the same count and under the same terms, with `CCCc1cc(N2CCCc3cc(-c4cnn(C)c4)c(C(F)F)cc32)cc2c1n(C)c(=O)n2C` [Example 99, 6-(7-(difluoromethyl)-6-(1-methyl-1H-pyrazol-4-yl)-3,4-dihydroquinolin-1(2H)-yl)-1,3-dimethyl-4-propyl-1H-benzo[d]imidazol-2(3H)-one] the figure was 19 nM. Consider `Cn1cc(-c2cc3c(cc2C(F)F)N(c2cnc4c(c2)n(C)c(=O)n4C)CCC3)cn1` [Example 25], for which the IC50 in experiment [1] is 38 nM. On the same count and under the same terms, with `CNC(=O)N1CCOc2ccc(-c3cccc(-c4cnn(C)c4)c3C(F)F)cc2C1` [Example 77, 7-(2-(difluoromethyl)-3-(1-methyl-1H-pyrazol-4-yl)phenyl)-N-methyl-2,3-dihydrobenzo[f][1,4]oxazepine-4(5H)-carboxamide] the figure was 187 nM; with `CNC(=O)N1CCOc2ccc(-c3cccc4nc(-c5ccc(OC)cc5)cn34)cc2C1` [Example 86, 7-[2-(4-methoxyphenyl)imidazo[1,2-a]pyridin-5-yl]-N-methyl-3,5-dihydro-2H-1,4-benzoxazepine-4-carboxamide], 81 nM. On the same count and under the same terms, with `CNC(=O)N1CCOc2ccc(-c3cncc4ccccc34)cc2C1` [Example 11] the figure was 281 nM.

On to `Cn1cc(-c2cc3c(cc2C(F)F)N(c2ccc4c(c2)sc(=O)n4C)CCC3)cn1` [Example 22], for which the IC50 in experiment [1] worked out at 1690 nM. On the same count and under the same terms, with `CNC(=O)c1coc2ccc(N3CCCc4cc(-c5cnn(C)c5)c(C(F)F)cc43)cc12` [Example 73, 5-(7-(difluoromethyl)-6-(1-methyl-1H-pyrazol-4-yl)-3,4-dihydroquinolin-1(2H)-yl)-N-methylbenzofuran-3-carboxamide] the figure was 80 nM. In the case of `CNC(=O)N1CCOc2ccc(-c3cccc4nn(C)cc34)cc2C1` [Example 5], the IC50 in experiment [1] was determined as 296 nM. Same read-out and setting: with `CNC(=O)[C@H]1CCc2ccc(N3CCCc4cc(-c5cnn(C)c5)c(C(F)F)cc43)nc21` [Example 117, (S)-2-(7-(difluoromethyl)-6-(1-methyl-1H-pyrazol-4-yl)-3,4-dihydroquinolin-1(2H)-yl)-N-methyl-6,7-dihydro-5H-cyclopenta[b]pyridine-7-carboxamide] the figure was 40 nM.

The values are drawn from US10696655B2, “Therapeutic compounds and uses thereof” (GENENTECH, INC., priority 2017, dated 2020).
